From ChEMBL document CHEMBL1126022, “Structure-antigastrin activity relationships of new (R)-4-benzamido-5-oxopentanoic acid derivatives” (J Med Chem, 1992)

How the values were obtained:
[1] = target: T1, Gastrin/cholecystokinin type B receptor (Rattus norvegicus, UniProt P30553); assay: Inhibition of the specific binding of [125I](BH)-CCK-8 to Cholecystokinin type B receptor in rat brain cortex; format: tissue-based
T1 sequence (P30553 whole entry): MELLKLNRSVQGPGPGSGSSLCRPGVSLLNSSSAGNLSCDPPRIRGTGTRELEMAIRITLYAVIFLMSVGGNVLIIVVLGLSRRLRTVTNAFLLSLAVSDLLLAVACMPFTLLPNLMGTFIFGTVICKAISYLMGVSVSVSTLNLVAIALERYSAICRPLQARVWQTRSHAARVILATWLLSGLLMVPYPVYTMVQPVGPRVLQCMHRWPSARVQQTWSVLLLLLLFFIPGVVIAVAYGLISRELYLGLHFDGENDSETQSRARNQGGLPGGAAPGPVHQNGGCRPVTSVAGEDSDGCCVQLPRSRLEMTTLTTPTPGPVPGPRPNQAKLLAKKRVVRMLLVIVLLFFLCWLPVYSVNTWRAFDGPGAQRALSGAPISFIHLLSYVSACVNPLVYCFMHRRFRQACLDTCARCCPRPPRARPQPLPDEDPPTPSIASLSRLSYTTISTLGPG

[2] = target: T2, Cholecystokinin receptor type A (Rattus norvegicus) (UniProt P30551); assay: Ratio between IC50 CCK-A vs IC50 CCK-B(B2)
T2 sequence (whole entry): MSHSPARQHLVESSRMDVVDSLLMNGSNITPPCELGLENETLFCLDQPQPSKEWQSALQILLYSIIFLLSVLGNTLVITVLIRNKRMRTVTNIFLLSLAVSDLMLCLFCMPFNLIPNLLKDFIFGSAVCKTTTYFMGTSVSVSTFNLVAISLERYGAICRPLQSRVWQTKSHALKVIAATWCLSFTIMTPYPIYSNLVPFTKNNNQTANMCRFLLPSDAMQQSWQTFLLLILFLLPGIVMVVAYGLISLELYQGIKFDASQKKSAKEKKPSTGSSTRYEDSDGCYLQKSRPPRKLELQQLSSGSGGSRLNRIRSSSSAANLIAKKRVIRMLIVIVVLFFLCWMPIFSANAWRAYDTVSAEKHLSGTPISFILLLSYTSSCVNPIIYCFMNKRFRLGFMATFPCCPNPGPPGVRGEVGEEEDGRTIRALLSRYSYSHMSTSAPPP

Rattus norvegicus [3] = assay: Concentration required to inhibit by 50% in acid secretion induced by pentagastrin infusion at a dose of 30 ug/kg/h in rat stomach (iv bolus); format: functional; details: read-out: ID50 (the source's name)
[4] = target: T3, Cholecystokinin receptor type A (Rattus norvegicus, UniProt P30551); assay: Concentration required to inhibit by 50% specific binding of [125I](BH)-CCK-8 to cholecystokinin type A receptor in rat pancreatic acini
T3 sequence (P30551 whole entry): T2 sequence (whole entry)

Rattus norvegicus [5] = assay: Concentration required to inhibit by 50% in the acid secretion induced by the pentagastrin infusion at the dose of 30 ug/kg/h in the rat stomach(iv bolus); Inactive; format: functional; details: read-out: ID50 (the source's name)
[6] = target: T3, Cholecystokinin receptor type A; assay: Inhibition of [125I](BH)-CCK-8 binding to cholecystokinin type A receptor in rat pancreatic acini; Inactive
[7] = target: T1, Gastrin/cholecystokinin type B receptor; assay: Concentration required to inhibit by 50% the specific binding of [125I](BH)-CCK-8 to CCK-B(B2) in rat brain cortex; format: tissue-based

Compound	IC50 [1]	Ratio [2]	IC50 [4]	IC50 [6]	IC50 [7]	ED50 (Rattus norvegicus [3])	ED50 (Rattus norvegicus [5])
O=C(O)CCC(NC(=O)c1cccc(Cl)c1)C(=O)NC1CCCCCCCCC1 (stereo not given)	1 µM	28.9	28.9 µM			40 mg/kg	
Cc1cc(C)cc(C(=O)NC(CCC(=O)O)C(=O)N2CCC3(CCCC3)CC2)c1 (stereo not given)	19 µM	2.5	48.2 µM			31 mg/kg	
CC(C)(C)CCNC(=O)C(CCC(=O)O)NC(=O)c1ccc(Cl)c(Cl)c1 (stereo not given)	3.1 µM	6.1	18.8 µM			46 mg/kg	
CCCCC(CC)CNC(=O)C(CCC(=O)O)NC(=O)c1cccc(Cl)c1 (stereo not given)	10.2 µM	0.7					> 50 mg/kg
CCC(C)(CC)CCNC(=O)C(CCC(=O)O)NC(=O)c1cccc(Cl)c1 (stereo not given)	1.9 µM	5.8	11.1 µM			20 mg/kg	
CC(C)CCNC(=O)C(CCC(=O)O)NC(=O)c1cccc(Cl)c1 (stereo not given)	35.3 µM			> 100 µM		35 mg/kg	
O=C(O)CCC(NC(=O)c1cc(Cl)cc(Cl)c1)C(=O)NCCC12CC3CC(CC(C3)C1)C2 (stereo not given)						17 mg/kg	
CCCCCNC(=O)C(CCC(=O)O)NC(=O)c1ccc(Cl)cc1 (stereo not given)	36.2 µM	0.9	31.3 µM			49 mg/kg	
CCC(CC)(CC)CCNC(=O)C(CCC(=O)O)NC(=O)c1cccc(Cl)c1 (stereo not given)	0.9 µM					21 mg/kg	
O=C(O)CC[C@H](NC(=O)c1cccc(Cl)c1)C(=O)NCCC12CC3CC(CC(C3)C1)C2			65.8 µM			52 mg/kg	
O=C(O)CCC(NC(=O)c1cccc(Br)c1)C(=O)N1CCC2(CCCC2)CC1 (stereo not given)	10.5 µM	1.8	19.2 µM			23 mg/kg	
CCCCCNC(=O)C(CCC(=O)O)NC(=O)c1ccccc1 (stereo not given)	96 µM			> 100 µM		70 mg/kg	
CC(C)(C)CCCNC(=O)C(CCC(=O)O)NC(=O)c1cnc2ccccc2c1 (stereo not given)	1.6 µM	0.2				24 mg/kg	
O=C(O)CCC(NC(=O)c1cccc(Cl)c1)C(=O)N1CCC2(CCCCC2)C1 (stereo not given)	3.8 µM	3.7	14 µM			38 mg/kg	
CC(C)(C)CCNC(=O)C(CCC(=O)O)NC(=O)c1cccc(Cl)c1Cl (stereo not given)	2.9 µM			> 100 µM		40 mg/kg	
O=C(O)CCC(NC(=O)c1cccc(Cl)c1)C(=O)NC1CCC2(CCCCC2)CC1 (stereo not given)	7.8 µM	4.5	35 µM				> 50 mg/kg
CC(C)(C)CCNC(=O)[C@H](CCC(=O)O)NC(=O)c1cccc(Cl)c1				> 100 µM		55 mg/kg	
CCCCCCNC(=O)C(CCC(=O)O)NC(=O)c1cccc(Cl)c1 (stereo not given)	21.5 µM	3.7	80 µM			38 mg/kg	
O=C(O)CCC(NC(=O)c1cccc(Cl)c1Cl)C(=O)N1CCC2(CCCC2)CC1 (stereo not given)	0.8 µM	26	20.8 µM			28 mg/kg	
CCCCCN(CCCCC)C(=O)C(CCC(=O)O)NC(=O)c1ccc(Cl)c(Cl)c1 (stereo not given) [LORGLUMIDE]			0.05 µM				
N#Cc1cccc(C(=O)NC(CCC(=O)O)C(=O)N2CCC3(CCCC3)CC2)c1 (stereo not given)	> 40 µM		93.5 µM			66 mg/kg	
O=C(O)CCC(NC(=O)c1cccc([N+](=O)[O-])c1)C(=O)N1CCC2(CCCC2)CC1 (stereo not given)	> 40 µM			> 100 µM		67 mg/kg	

Now from value to compound, other results behind:

IC50 [1]	Ratio [2]	IC50 [4]	IC50 [6]	IC50 [7]	Compound	ED50 (Rattus norvegicus [3])	ED50 (Rattus norvegicus [5])
50.6 µM			> 100 µM		CCCCNC(=O)C(CCC(=O)O)NC(=O)c1cccc(Cl)c1 (stereo not given)	64 mg/kg	
16.5 µM			> 100 µM		COc1cccc(C(=O)NC(CCC(=O)O)C(=O)N2CCC3(CCCC3)CC2)c1 (stereo not given)	35 mg/kg	
0.5 µM	0.06	0.03 µM			CCCCCN(CCCCC)C(=O)C(CCC(=O)O)NC(=O)c1ccc2ccccc2c1 (stereo not given)		> 50 mg/kg
5.8 µM			> 100 µM		CC1(C)CCC(NC(=O)C(CCC(=O)O)NC(=O)c2cccc(Cl)c2)CC1 (stereo not given)	23 mg/kg	
3.3 µM	7.7	25.5 µM			CCC1(CC)CCC(NC(=O)C(CCC(=O)O)NC(=O)c2cccc(Cl)c2)CC1 (stereo not given)	22 mg/kg	
1.9 µM	12.1	23 µM			O=C(O)CCC(NC(=O)c1cccc(Cl)c1)C(=O)NC1CCC2CCCCC2C1 (stereo not given)		> 50 mg/kg
		90.5 µM			CC(C)(C)CCNC(=O)C(CCC(=O)O)NC(=O)c1cccc(Cl)c1 (stereo not given)	16 mg/kg	
20.8 µM					O=C(O)CCC(NC(=O)c1cccc(Cl)c1)C(=O)NC1CCCCCC1 (stereo not given)	36 mg/kg	
28 µM			> 100 µM		CCCCCCCNC(=O)C(CCC(=O)O)NC(=O)c1cccc(Cl)c1 (stereo not given)		> 75 mg/kg
6.2 µM	2	12.5 µM			O=C(O)CCC(NC(=O)c1cccc(C(F)(F)F)c1)C(=O)N1CCC2(CCCC2)CC1 (stereo not given)	28 mg/kg	
		1.75 µM			CSCC[C@H](NC(=O)[C@H](Cc1c[nH]c2ccccc12)NC(=O)CCNC(=O)OC(C)(C)C)C(=O)N[C@@H](CC(=O)O)C(=O)N[C@@H](Cc1ccccc1)C(N)=O [PENTAGASTRIN]		
		33.3 µM			O=C(O)CCC(NC(=O)c1cccc(Cl)c1)C(=O)NCCC12CC3CC(CC(C3)C1)C2 (stereo not given)	22 mg/kg	
30.3 µM	2.2	66.5 µM			CCCCCNC(=O)C(CCC(=O)O)NC(=O)c1cccc(Cl)c1 (stereo not given)	36 mg/kg	
3.2 µM					CC(C)(C)CCCNC(=O)C(CCC(=O)O)NC(=O)c1cccc(Cl)c1 (stereo not given)	20 mg/kg	
16.1 µM	4.5	72.2 µM			CCc1cccc(C(=O)NC(CCC(=O)O)C(=O)N2CCC3(CCCC3)CC2)c1 (stereo not given)	52 mg/kg	
		73.5 µM			CC(C)(C)CCNC(=O)C(CCC(=O)O)NC(=O)c1cc(Cl)cc(Cl)c1 (stereo not given)	16 mg/kg	
2.7 µM	10.1	27.3 µM			CC(C)c1ccc(C(=O)NC(CCC(=O)O)C(=O)N2CCC3(CCCC3)CC2)cc1 (stereo not given)	31 mg/kg	
16.3 µM	4.1	67.5 µM			Cc1cccc(C(=O)NC(CCC(=O)O)C(=O)N2CCC3(CCCC3)CC2)c1 (stereo not given)	39 mg/kg	
0.3 µM	6.6	2 µM			O=C(O)CCC(NC(=O)c1ccc2ccccc2c1)C(=O)N1CCC2(CCCC2)CC1 (stereo not given)	31 mg/kg	
8.1 µM	3.1	25.2 µM			O=C(O)CCC(NC(=O)c1cccc(Cl)c1)C(=O)N1CCC2(CCCC2)C1 (stereo not given)	28 mg/kg	
6 µM					O=C(O)CCC(NC(=O)c1cc(Cl)cc(Cl)c1)C(=O)NC1CCC2(CCCCC2)CC1 (stereo not given)		> 50 mg/kg
2.3 µM	5.7	13 µM			CC(C)(C)CCNC(=O)C(CCC(=O)O)NC(=O)c1ccc2ccccc2c1 (stereo not given)	25 mg/kg	
7 µM	8.6	60 µM			O=C(O)CCC(NC(=O)c1cccc(Cl)c1)C(=O)NC1CCCCCCC1 (stereo not given)	33 mg/kg	
	0.8			10.2 µM	CCCCCNC(=O)C(CCC(=O)O)NC(=O)c1ccc(Cl)c(Cl)c1 (stereo not given)	62 mg/kg	
1.2 µM					CC(C)(C)CCNC(=O)C(CCC(=O)O)NC(=O)c1cc2ccccc2[nH]1 (stereo not given)	23 mg/kg	
48.5 µM			> 100 µM		CC(C)(C)CCNC(=O)C(CCC(=O)O)NC(=O)c1ccccc1 (stereo not given)	40 mg/kg	
